PMC13095408, “DBeQ derivative targets vacuolar protein sorting 4 functions in cancer cells and suppresses tumor growth in mice” (The Journal of Pharmacology and Experimental Therapeutics, 2025)

Experiments:
[1] = test system: GFP-CHMP4B-expressing U2OS cells; assay: GFP-CHMP4B accumulation cell-based assay (high-content microscopy); conditions: for 4-107-induced GFP-CHMP4B accumulation on co-treatment: 100 nM BafA1 or 50 μM CQ with 2 μM 4-107, starved, 2 hours
Description: Plates were then scanned using the 20× objective for 1 hour with ≥100 cells/well across 6 fields/well. […] For all other assays, the cells were cultured overnight in black glass-bottom 96-well plates (Cellvis; P96-1.5H-N) then stained, rinsed, and treated with SM containing the indicated compounds (0.1% DMSO or 0.1% DMSO/0.1% ethanol [vehicle] final). Plates were scanned using the 20× NA .70 objective at the indicated intervals with ≥ 300 cells/well across 3 fields/well. […]

VPS4B = target: T1, VPS4B (Homo sapiens, UniProt O75351); assay: VPS4B ATPase activity, EnzChek Phosphate assay; format: biochemical; set-up: His tag (pET28a vector-encoded) (N); made in house; host or cells: Escherichia coli BL21(DE3)
T1 sequence (O75351 1-444): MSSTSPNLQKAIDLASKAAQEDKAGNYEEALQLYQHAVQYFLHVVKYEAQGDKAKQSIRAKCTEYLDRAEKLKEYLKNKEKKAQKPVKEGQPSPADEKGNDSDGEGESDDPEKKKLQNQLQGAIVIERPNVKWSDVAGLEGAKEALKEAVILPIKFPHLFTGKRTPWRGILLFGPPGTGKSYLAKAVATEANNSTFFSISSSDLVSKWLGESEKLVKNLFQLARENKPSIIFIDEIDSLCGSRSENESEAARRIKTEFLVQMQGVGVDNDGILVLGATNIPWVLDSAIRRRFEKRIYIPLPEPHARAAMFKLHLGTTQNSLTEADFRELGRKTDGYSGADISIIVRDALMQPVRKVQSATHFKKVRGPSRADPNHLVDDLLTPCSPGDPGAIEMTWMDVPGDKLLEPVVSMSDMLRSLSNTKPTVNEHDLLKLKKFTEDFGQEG
Description: VPS4B and VCP ATPase activities were measured using the EnzChek Phosphate assay for the quantification of released phosphate. Assay buffers were based on literature precedents ([Cupido et al, 2019], [2021]) as follows: VPS4B buffer (20 mM HEPES-KOH, pH 7.4, 25 mM KOAc, 2 mM MgCl2, 5 mM (NH4)2SO4, 0.5 mM CaCl2, 2.5 mM DTT, 0.1 mg/mL BSA, 0.005% v/v Triton X-100), VCP buffer (20 mM HEPES-NaOH, pH 7.4, 20 mM NaCl, 10 mM MgCl2, 5 mM (NH4)2SO4, 0.5 mM CaCl2, 2.5 mM DTT, 0.1 mg/mL BSA, 0.005% v/v Triton X-100). In black clear-bottom 384-well plates, 22.5 μL of 5% DMSO or 40× test compounds diluted in the respective assay buffer was added to each well. ATPases were diluted to 1 μM in the respective buffers containing 2× EnzChek Phosphate assay coupling reagents of 400 μM MESG and 2 U of PNP, then 25 μL was added to each well. Plates were mixed at 1000 rpm for 30 minutes at RT while being protected from light. The reaction was initiated by adding 2.5 μL of 20 mM MgATP or water followed by mixing at 1200 rpm for 30 seconds at RT. Plates were measured at 360 nm using a CLARIOstar plate reader (BMG LABTECH) for 20 minutes at 37 °C. ATPase activity was calculated as the amount of phosphate released over a 5-minute interval under linear initial velocity conditions. The remaining ATPase activity was calculated by normalizing compound-treated activity values to the DMSO control. IC50 was calculated by fitting normalized values to a sigmoidal dose-response curve with Hill slope = −1 using Graph Pad Prism 10.0.
To identify VPS4i, we developed enzyme- and cell-based VPS4 functional assays to serve as VPS4i-screening platforms. For the enzyme-based assay, we used the colorimetric EnzChek Phosphate assay that detects free phosphate with the advantage of continuous measurement of ATP hydrolysis over time. […] Due to the high sequence and structural similarity of AAA-ATPases, we also established a VCP ATPase assay to evaluate hit selectivity. […] For the cell-based assay, our approach was based on how VPS4 inhibition causes the accumulation of ESCRT-III ([Babst et al, 1998]; [Katoh et al, 2003]). We used an N-terminal GFP-tagged CHMP4B reporter system because it is the most abundant ESCRT-III subunit ([Katoh et al, 2004]; [Teis et al, 2008]). Our aim was to test compounds under short-term serum and amino acid starvation to stimulate ESCRT activity for easier detection of inhibitors ([Takahashi et al, 2018], [2019]). […] Overall, we established 2 systems for VPS4i screening, a VPS4B ATPase activity assay and a GFP-CHMP4B accumulation cell-based assay.

[2] = screened at 1 µM, mean ± S.D., Supplemental Table 2
[3] = screened at 1 μM, starvation media, 1 hour, foci intensity per cell normalized to 4-107, mean ± SD, Table 1
[4] = remaining ATPase activity, screened at 5 μM, mean ± SD, Table 1
[5] = screened at 5 µM, mean ± S.D., Supplemental Table 2

| SMILES | VPS4B ATPase (% DMSO) (VPS4B; [5]) | GFP-CHMP4B (% 4-107) [1, 2] [% 4-107] | other results |
| --- | --- | --- | --- |
| CO/C1=C\C(C)=C\[C@@H](C)[C@@H](O)[C@@H](C)C/C(C)=C/C=C/[C@H](OC)[C@@H]([C@@H](C)[C@@H](O)[C@H](C)[C@@]2(O)C[C@@H](O)[C@H](C)[C@@H](C(C)C)O2)OC1=O [BafA1, bafilomycin A1, reference compound] | – | – | 4-107-induced GFP-CHMP4B accumulation on co-treatment [1]: blocked |
| CCN(CC)CCCC(C)Nc1ccnc2cc(Cl)ccc12 (stereo not shown) [CQ, chloroquine diphosphate, reference compound] | – | – | 4-107-induced GFP-CHMP4B accumulation on co-treatment [1]: blocked |
| NCc1ccccc1 [Compound 2] | 55.31 ± 5.04 | 6.69 ± 3.07 | GFP-CHMP4B (% 4-107) [1, 3]: 6.69 ± 3.07 % 4-107; VPS4B ATPase (% DMSO) (VPS4B; [4]): 55.31 ± 5.04 % DMSO |
| COc1cccc2c(NCc3ccccc3)nc(Cl)nc12 [Compound 3] | 71.88 ± 3.41 | – | GFP-CHMP4B (% 4-107) ([1]; screened at 1 µM, mean ± S.D., Supplemental Table 2, listed as 5-125): 3.86 ± 2.41 % 4-107; GFP-CHMP4B (% 4-107) [1, 3]: 3.86 ± 2.41 % 4-107; VPS4B ATPase (% DMSO) (VPS4B; [4]): 71.88 ± 3.41 % DMSO |
| COc1cccc2c(NCc3ccccc3)nc(Cl)nc12 [Compound 4-95] | – | 1.76 ± 0.74 | – |
| COC(=O)c1cccc(CNc2nc(NCc3cccc(C(=O)OC)c3)c3cccc(OC)c3n2)c1 [Compound 4-131-iii] | 34.70 ± 0.70 | 11.94 ± 9.74 | – |
| COc1cccc2c(NCc3cccc(C(=O)O)c3)nc(NCc3cccc(C(=O)O)c3)nc12 [Compound 4-131-iv] | 105.12 ± 0.39 | 1.10 ± 0.68 | – |
| COc1cccc2c(NCc3ccccc3)nc(NCc3ccccc3)nc12 [Compound 4] | – | – | GFP-CHMP4B (% 4-107) ([1]; screened at 1 µM, mean ± S.D., Supplemental Table 2, listed as 5-133): 2.92 ± 2.81 % 4-107; GFP-CHMP4B (% 4-107) [1, 3]: 2.92 ± 2.81 % 4-107; VPS4B ATPase (% DMSO) (VPS4B; [4]): 75.23 ± 0.63 % DMSO; VPS4B ATPase (% DMSO) (VPS4B; screened at 5 µM, mean ± S.D., Supplemental Table 2, listed as 5-133): 75.23 ± 0.63 % DMSO |
| COc1cccc2c(NCCc3cccc(S(N)(=O)=O)c3)nc(NCCc3ccc(S(N)(=O)=O)cc3)nc12 [Compound 5-15-iv] | 77.37 ± 4.37 | 3.22 ± 0.67 | – |
| COc1cccc2c(NCc3cccc(OC(F)(F)F)c3)nc(NCc3ccccc3)nc12.Cl [Compound 5-33-iv] | 25.77 ± 2.48 | 5.27 ± 1.53 | – |
| COc1cccc2c(NCc3ccccc3)nc(NCc3cccc(C(=O)O)c3)nc12 [Compound 5-35-iv] | 88.20 ± 5.24 | 10.92 ± 9.21 | – |
| COc1cccc2c(NCc3ccccc3)nc(-n3ccc4ccc(C(=O)O)cc43)nc12 [Compound 5-39-iv] | 93.04 ± 0.65 | 1.59 ± 0.93 | – |
| COC(=O)c1ccc2c(ccn2-c2nc(NCc3ccccc3)c3cccc(OC)c3n2)c1 [Compound 5-41-iii] | 80.70 ± 2.02 | 2.82 ± 1.33 | – |
| COc1cccc2c(NCc3ccccc3)nc(-n3ccc4cc(C(=O)O)ccc43)nc12 [Compound 5-41-iv] | 87.4 ± 1.43 | 1.29 ± 1.06 | – |
| COC(=O)c1ccc2ccn(-c3nc(NCCc4ccc(S(N)(=O)=O)cc4)c4cccc(OC)c4n3)c2c1 [Compound 5-43-iii] | 94.98 ± 0.53 | 3.01 ± 1.98 | – |
| COc1cccc2c(NCCc3ccc(S(N)(=O)=O)cc3)nc(-n3ccc4ccc(C(=O)O)cc43)nc12 [Compound 5-43-iv] | 99.19 ± 4.43 | 1.27 ± 0.69 | – |
| COC(=O)c1ccc2c(ccn2-c2nc(NCc3ccc(S(N)(=O)=O)cc3)c3cccc(OC)c3n2)c1 [Compound 5-47] | – | 1.41 ± 0.61 | – |
| Fc1ccc2nc(NCc3ccccc3)nc(NCc3ccccc3)c2c1 [Compound 5-143] | – | 11.12 ± 2.40 | – |
| COc1cccc2nc(NCc3ccccc3)nc(NCc3ccccc3)c12 [Compound 7-27] | – | 19.55 ± 2.22 | – |
| COc1ccc2c(Nc3ccccc3)nc(Cl)nc2c1 [Compound 7-41] | – | 17.93 ± 2.08 | – |
| COc1ccc2c(Nc3ccccc3)nc(NCc3ccccc3)nc2c1 [Compound 7-45] | – | 24.94 ± 5.94 | – |
| COc1ccc(CNc2nc(NCc3ccccc3)c3cccc(N)c3n2)cc1 [Compound 7-65] | – | 17.36 ± 5.75 | – |
| Nc1cccc2c(NCc3ccccc3)nc(NCc3ccc(F)cc3)nc12 [Compound 7-69] | – | 20.04 ± 6.12 | – |
| COc1cccc2c(Nc3ccccc3)nc(NCc3ccccc3)nc12 [Compound 7-75] | – | 11.57 ± 12.42 | – |
| Nc1cccc2c(NCc3ccccc3)nc(NCc3cccc(F)c3)nc12 [Compound 7-77] | – | 26.24 ± 20.18 | – |

Continued, in another order:

| VPS4B ATPase (% DMSO) (VPS4B; [5]) | SMILES | GFP-CHMP4B (% 4-107) [1, 2] [% 4-107] | other results |
| --- | --- | --- | --- |
| 30.96 ± 1.37 | COc1cccc2c(NCCc3ccccc3)nc(NCCc3ccccc3)nc12 [Compound 5-03] | 2.31 ± 1.75 | – |
| 28.5 ± 0.04 | COc1cccc2c(NCc3ccc(Cl)cc3)nc(NCc3ccc(Cl)cc3)nc12 [Compound 5-07] | 14.56 ± 10.71 | – |
| 82.46 ± 1.64 | COc1cccc2c(NCc3ccncc3)nc(NCc3ccncc3)nc12 [Compound 5-11] | 1.10 ± 0.76 | – |
| 86.08 ± 7.25 | COc1cccc2c(NCc3ccc(S(N)(=O)=O)cc3)nc(Cl)nc12 [Compound 5-17] | 2.87 ± 0.27 | – |
| 91.51 ± 3.26 | COc1ncnc2c1ccn2-c1nc(NCc2ccccc2)c2cccc(OC)c2n1 [Compound 5-51] | 2.51 ± 1.24 | – |
| 72.71 ± 0.81 | COc1ncnc2c1ccn2-c1nc(NCCc2ccccc2)c2cccc(OC)c2n1 [Compound 5-53] | 1.68 ± 0.33 | – |
| 93.20 ± 1.22 | COc1cccc2c(NCc3ccc(C(F)(F)F)cc3)nc(-n3ccc4cncnc43)nc12 [Compound 5-55] | 2.25 ± 0.55 | – |
| 93.98 ± 3.83 | COc1ncnc2c1ccn2-c1nc(NCc2ccc(C(F)(F)F)cc2)c2cccc(OC)c2n1 [Compound 5-57] | 2.44 ± 0.81 | – |
| 97.54 ± 1.15 | COc1cccc2c(NCCc3ccccc3)nc(-n3ccc4cncnc43)nc12 [Compound 5-59] | 2.84 ± 0.06 | – |
| 90.35 ± 0.07 | COc1cccc2c(NCCc3cccnc3)nc(-n3ccc4cncnc43)nc12 [Compound 5-63] | 5.28 ± 0.27 | – |
